Values of other authors, collected in patent US20110052650A1, “POROUS CRYSTALLINE HYBRID SOLID FOR ADSORBING AND RELEASING GAS OF BIOLOGICAL INTEREST” (Centre National De La Recherche Scientifique - CNR S, priority 2008, published 2011).

## S [H2S]
  pKa: 6.8
